Source: US20150284362A1, “CARBAZOLE-CONTAINING AMIDES, CARBAMATES, AND UREAS AS CRYPTOCHROME MODULATORS” (ReSet Therapeutics, Inc., priority 2014, published 2015)

Assays:
[1] = biological target: T1, FAD-binding domain of human CRY1 protein (hCRY1) (Homo sapiens, UniProt Q16526); assay: Thermal shift binding assay (differential scanning fluorimetry); details: purified FADBD 0.5 μg per well, 5% DMSO
T1 construct: Myc-DDK (Myc + FLAG) (C); made in house
T1 sequence (Q16526 1-494): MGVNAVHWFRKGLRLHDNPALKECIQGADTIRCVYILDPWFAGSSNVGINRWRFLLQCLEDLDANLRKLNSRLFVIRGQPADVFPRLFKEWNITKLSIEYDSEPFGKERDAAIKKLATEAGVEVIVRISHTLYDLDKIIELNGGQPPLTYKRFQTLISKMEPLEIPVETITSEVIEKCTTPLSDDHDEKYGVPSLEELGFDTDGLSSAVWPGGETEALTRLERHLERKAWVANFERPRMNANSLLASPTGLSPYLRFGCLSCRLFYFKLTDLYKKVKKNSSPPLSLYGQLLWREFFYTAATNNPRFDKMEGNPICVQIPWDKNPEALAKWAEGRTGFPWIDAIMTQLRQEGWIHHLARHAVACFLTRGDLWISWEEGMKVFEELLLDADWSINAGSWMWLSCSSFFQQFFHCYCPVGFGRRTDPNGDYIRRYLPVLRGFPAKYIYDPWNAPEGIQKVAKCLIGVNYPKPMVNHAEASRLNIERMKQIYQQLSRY
Description: Binding of compounds to the isolated FAD-binding domain of human CRY1 protein (hCRY1) was determined using a differential scanning fluorimetry (‘thermal shift’) assay (Pantoliano et al. (2001) J Biomol Screening 6, 429; Niesen et al. (2007) Nature Protocols 2, 2212). The FAD-binding domain of hCRY1 (amino acid residues 1-494) with a C-terminal Myc-DDK tag (FADBD), was produced by transient transfection of HEK293T cells (Catalog # CRL-3216, American Type Culture Collection) and purified by anti-FLAG affinity chromatography (Catalog # A2220, Sigma-Aldrich). FADBD (0.5 μg per well) was incubated with dilutions of compounds in DMSO (5% DMSO final concentration in reaction) in 17.5 μl Tris-buffered saline (TBS) for 10 minutes on ice, then 2.5 μl of 8× Sypro-Orange Dye (Life Technologies) was added to each well. Triplicate wells were assayed for each compound concentration. The melting temperatures were measured in an ABI7500 quantitative PCR instrument using the melt curve mode with a thermal profile of 2 minutes at 25° C., followed by a ramp rate of 1° C./minute up to 99° C. The melting temperature for each well was determined from the first derivative of the melt curve. The change in melting temperature (ΔTm) was obtained by subtraction of the melting temperature of the FADBD in 5% DMSO alone.

[2] = system: core clock gene mRNAs in liver; assay: Four day study, liver core clock gene mRNA, ICR mice; assay type: in vivo, mouse; details: 50 mg/kg PO BID 4 days, ZT6
Description: Male ICR mice (weighing 30-35 g), obtained from Charles River Laboratories (Hollister, Calif.), were used for the experiment following at least 3 days of acclimation. Mice were dosed with vehicle (WFI or 10% Kolliphor) or compound (50 mg/kg, dose volume 5 mL/kg, PO) for 4 days BID (twice a day), beginning in the afternoon of the first day. The last dose of compound or vehicle was administered on the morning of harvest. On the day of harvest (6 hours following the final dose), mice were euthanized by CO2 asphyxiation and 50 mg of liver tissue was excised and placed in a tube containing 500 μl of RNA later.
E.Z.N.A.® HP Total RNA Isolation Kits (R6812-01 and the protocol described in the Manual, Revised 2010) were utilized to prepare and isolate RNA from the liver samples. To prepare the RNA samples, 10-30 mg of sample was removed from RNA-Later and placed in a 1.5 ml microfuge tube. […] The cleared supernatant was transferred by pipetting to a DNA Clearance Column Pre-inserted in a 2 mL Collection Tube. The assembled column was centrifuged at 13,000×g for 1 minute, and the flow-through was saved. An equal volume (700 μl) of 70% ethanol was added to the lysate and mixed. The sample was then applied to a HiBind RNA spin column placed into a 2 ml collection tube, which was centrifuged at 10,000×g for 60 seconds at room temperature. RNA Wash Buffer I (250 μl) was added by pipetting directly onto a new HiBind RNA column inserted in a 2 ml collection tube. The assembled column was centrifuged at 10,000×g for 60 seconds. The RNA column was placed into a new 2 ml collection tube. […] The column with bound RNA was incubated at room temperature (25-30° C.) for 15 minutes. RNA Wash Buffer I (500 μl) was added to the column and placed on a bench top for 2 minutes. After centrifuging at 10,000×g for 60 seconds, discarding the flow-through, 500 μl of RNA Wash Buffer II was added and centrifuged at 10,000×g for 60 seconds. Another 500 μl of RNA Wash Buffer II was added and the column assembly was centrifuged at 10,000×g for 60 seconds. The column was centrifuged for 2 minutes at maximum speed to completely dry the HiBind matrix. The column was placed in a clean 1.5 ml microcentrifuge tube and 40-70 μl of molecular biology grade water is added. After sitting for 1 minute, the column was centrifuged for 2 minutes at maximum speed to elute the RNA. The isolated RNA was collected into the collection tube.
RediPlate 96 RiboGreen RNA Quantification Kit (Invitrogen) RediPlate standard curve was prepared by transferring 20 μl reconstituted RNA standard to a RediPlate well reconstituted in 180 μl RediPlate TE buffer. For liver RNAs prepared from 30-100 mg of tissue using a kit similar to the Omega Bio-Tek HP Total RNA Kit and eluted in RNAse-free water in a volume of 50 μl (microliters), 5 μl of the total RNA is diluted in 195 μl of RediPlate TE buffer (1:40 dilution of RNA), mix. […] Alternatively, one can use the FlexStation 3 with Ex 488 nm and Em 525 nm and a Cutoff of 515 nm.

[3] = system: core clock gene mRNAs in liver; assay: Single dose at peak (ZT0) or nadir (ZT10) of Cry1, liver core clock gene mRNAs; assay type: in vivo, mouse; details: db/db mice; single dose 50 mg/kg at ZT0 or ZT10; liver 7.5 hours later
Description: For compounds that interact directly with the core clock mechanism, the time of dosing may be critical for maximizing their effects. […] The former (ZT0) is coincident with the peak of Cry1 and Bmal1 protein in mouse liver and the latter (ZT10) corresponds to the approximate nadir of Cry1 and Bmal1. Liver tissue was taken 7.5 hours later for each, and the samples were examined for core clock gene mRNAs by RT-qPCR.

[4] = system: C57/Bl6J DIO mice; assay: 7 day dosing in diet-induced obesity (DIO) mouse model of type II diabetes; assay type: in vivo; details: 100 mg/kg PO QD 7 days
Source text: Male C57/Bl6J DIO mice were obtained from The Jackson Laboratory (Sacramento, Calif.). […] Animals were accustomed to these conditions for at least 2 weeks before experimentation and used at approximately 24 weeks of age.
Significance was accepted when p<0.05.

O=C1NCCN1CC(O)Cn1c2ccc(F)cc2c2cc(F)ccc21 (centres unmarked) [Compound 72, 1-(3-(3,6-difluoro-9H-carbazol-9-yl)-2-hydroxypropyl)imidazolidin-2-one]
change in melting temperature (ΔTm) of hCRY1 FADBD [1]: dose-dependent increase in ΔTm
Cry2 transcripts in liver [2]: decrease
liver Per2 expression [2]: suppression
impact on core clock gene mRNAs in liver, dosing at peak vs nadir [3]: greater relative impact on the clock mRNAs at the peak compared to the nadir
OGTT glucose vs vehicle control group [4]: much lower than the vehicle control group
